Like-named read-outs stand apart in the source and are kept apart here.
Assays:
Assay in all cases: 5-day viable cell number and apoptosis (7-AAD exclusion/Annexin V flow cytometry)
Type in all cases: cell-based
RIVA = RIVA cells, 5 days
Excerpt: (§1) The DLBCL panel includes seven cell lines classified as activated B-cell (ABC) subtype, thirteen cell lines classified as the germinal center B-cell (GCB) subtype, and three cell lines classified as primary mediastinal B-cell lymphoma (PMBL). […] The translocation of MYC, BCL6, or BCL2 to an IG locus usually leads to high levels of mRNA and protein due to the active transcription driven by a constitutively active IG promoter. […] Expressions of CRBN protein and known substrates, Ikaros, Aiolos, and ZFP91 were also evaluated (FIG. 1, panels B and C).
(§2) The panel of cell lines were treated with increasing doses of compounds for five days, at which time the number of viable cells was measured and the amount of apoptosis was determined by 7-AAD exclusion and Annexin V staining using flow cytometry.

SU-DHL-16 = system: SU-DHL-16
Excerpt: as §1, §2

SU-DHL-2 = system: SU-DHL-2
Excerpt: as §1, §2

SU-DHL-4 = system: SU-DHL-4
Excerpt: as §1, §2

SU-DHL-8 = system: SU-DHL-8
Excerpt: as §1, §2

TMD8 = TMD8 cells, 5 days
Excerpt: as §1, §2

Toledo = Toledo cells, 5 days
Excerpt: as §1, §2

U2932 = system: U2932
Excerpt: as §1, §2

U2940 = U2940 cells, 5 days
Excerpt: as §1, §2

WSU-DLCL2 = system: WSU-DLCL2
Excerpt: as §1, §2

[1] = Homo sapiens, 120 h, SU-DHL-16 cells, 5 days
[2] = Homo sapiens, 120 h, SU-DHL-2 cells, 5 days
[3] = Homo sapiens, 120 h, SU-DHL-4 cells, 5 days
[4] = Homo sapiens, 120 h, SU-DHL-8 cells, 5 days
[5] = Homo sapiens, 120 h, read-out: % Viable Cells IC50
[6] = Homo sapiens, 120 h, U2932 cells, 5 days
[7] = Homo sapiens, WSUDLCL2, 120 h, WSU-DLCL2 cells, 5 days

For `O=C1CC[C@H](N2C(=O)c3cccc(NCc4ccc(CN5CC(N6CCOCC6)C5)cc4F)c3C2=O)C(=O)N1` [Compound 1, (S)-2-(2,6-dioxopiperidin-3-yl)-4-((2-fluoro-4-((3-morpholinoazetidin-1-yl)methyl)benzyl)amino)isoindoline-1,3-dione], the “% Viable Cells Emax” value (RIVA) was 36.99%, the “% Viable Cells Sensitivity” value (RIVA) was “Intermediate (intermediate sensitivity with 15% to 55% cell viability)” and the “Apoptosis AUC” value (RIVA) was 216.6. For the same compound, the “Apoptosis Sensitivity” value (RIVA) was “Intermediate”, the EC50 (SU-DHL-16; [1]) was 0.262 µM and the Emax (SU-DHL-16; [1]) was 18.2%. The IC50 (SU-DHL-16; Homo sapiens, 120 h, SU-DHL-16 cells, 5 days, read-out: % Viable Cells IC50) was 0.12 µM, the IC50 (SU-DHL-16; Homo sapiens, SU-DHL-16 cells (Table 3), read-out: IC50) was 360 µM and the “% Viable Cells AUC” value (SU-DHL-16; SU-DHL-16 cells, 5 days) was 359.7. The “% Viable Cells Emax” value (SU-DHL-16; SU-DHL-16 cells, 5 days) was 30.33%, the “% Viable Cells Sensitivity” value (SU-DHL-16; SU-DHL-16 cells, 5 days) was “Intermediate (intermediate sensitivity with 15% to 55% cell viability)” and the “Apoptosis AUC” value (SU-DHL-16; SU-DHL-16 cells, 5 days) was 159.1. For the same compound, the “Apoptosis Sensitivity” value (SU-DHL-16; SU-DHL-16 cells, 5 days) was “Intermediate”, the EC50 (SU-DHL-2; [2]) was 0.00778 µM and the Emax (SU-DHL-2; [2]) was 75.2%. For the same compound, the IC50 (SU-DHL-2; Homo sapiens, 120 h, SU-DHL-2 cells, 5 days, read-out: % Viable Cells IC50) was 0.0013 µM, the IC50 (SU-DHL-2; Homo sapiens, SU-DHL-2 cells (Table 3), read-out: IC50) was 7 µM and the “% Viable Cells AUC” value (SU-DHL-2; SU-DHL-2 cells, 5 days) was 6.871. For the same compound, the “% Viable Cells Emax” value (SU-DHL-2; SU-DHL-2 cells, 5 days) was 1.264%, the “% Viable Cells Sensitivity” value (SU-DHL-2; SU-DHL-2 cells, 5 days) was “High (highly sensitive to Compound 1 with less than 6% viable cells remaining (Emax) after treatment)” and the “Apoptosis AUC” value (SU-DHL-2; SU-DHL-2 cells, 5 days) was 745. The “Apoptosis Sensitivity” value (SU-DHL-2; SU-DHL-2 cells, 5 days) was “High”, the EC50 (SU-DHL-4; [3]) was 0.452 µM and the Emax (SU-DHL-4; [3]) was 18.9%. The IC50 (SU-DHL-4; Homo sapiens, 120 h, SU-DHL-4 cells, 5 days, read-out: % Viable Cells IC50) was 0.5 µM, the IC50 (SU-DHL-4; Homo sapiens, SU-DHL-4 cells (Table 3), read-out: IC50) was 457 µM and the “% Viable Cells AUC” value (SU-DHL-4; SU-DHL-4 cells, 5 days) was 457.4. The “% Viable Cells Emax” value (SU-DHL-4; SU-DHL-4 cells, 5 days) was 41.79%, the “% Viable Cells Sensitivity” value (SU-DHL-4; SU-DHL-4 cells, 5 days) was “Intermediate (intermediate sensitivity with 15% to 55% cell viability)” and the “Apoptosis AUC” value (SU-DHL-4; SU-DHL-4 cells, 5 days) was 155.2. The “Apoptosis Sensitivity” value (SU-DHL-4; SU-DHL-4 cells, 5 days) was “Intermediate”, the EC50 (SU-DHL-8; [4]) was 0.509 µM and the Emax (SU-DHL-8; [4]) was 70.5%. The IC50 (SU-DHL-8; Homo sapiens, 120 h, SU-DHL-8 cells, 5 days, read-out: % Viable Cells IC50) was 0.25 µM, the IC50 (SU-DHL-8; Homo sapiens, SU-DHL-8 cells (Table 3), read-out: IC50) was 54 µM and the “% Viable Cells AUC” value (SU-DHL-8; SU-DHL-8 cells, 5 days) was 54.43. The “% Viable Cells Emax” value (SU-DHL-8; SU-DHL-8 cells, 5 days) was 2.508%, the “% Viable Cells Sensitivity” value (SU-DHL-8; SU-DHL-8 cells, 5 days) was “High (highly sensitive to Compound 1 with less than 6% viable cells remaining (Emax) after treatment)” and the “Apoptosis AUC” value (SU-DHL-8; SU-DHL-8 cells, 5 days) was 652.5. For the same compound, the “Apoptosis Sensitivity” value (SU-DHL-8; SU-DHL-8 cells, 5 days) was “High”, the EC50 (TMD8; Homo sapiens, 120 h) was 0.00444 µM and the Emax (TMD8; Homo sapiens, 120 h) was 83.2%. For the same compound, the IC50 (TMD8; [5]) was 0.003 µM, the “% Viable Cells AUC” value (TMD8) was 3.911 and the “% Viable Cells Emax” value (TMD8) was 1.365%. The “% Viable Cells Sensitivity” value (TMD8) was “High (highly sensitive to Compound 1 with less than 6% viable cells remaining (Emax) after treatment)”, the “Apoptosis AUC” value (TMD8) was 826.8 and the “Apoptosis Sensitivity” value (TMD8) was “High”. The EC50 (Toledo; Homo sapiens, 120 h) was 0.5 µM, the Emax (Toledo; Homo sapiens, 120 h) was 14% and the IC50 (Toledo; [5]) was 0.5 µM. The “% Viable Cells AUC” value (Toledo) was 507, the “% Viable Cells Emax” value (Toledo) was 52.68% and the “% Viable Cells Sensitivity” value (Toledo) was “Intermediate (intermediate sensitivity with 15% to 55% cell viability)”. The “Apoptosis AUC” value (Toledo) was 114.8, the “Apoptosis Sensitivity” value (Toledo) was “Intermediate” and the EC50 (U2932; [6]) was 11.9 µM. It also gave an Emax (U2932; [6]) of 69.9%, an IC50 (U2932; Homo sapiens, 120 h, U2932 cells, 5 days, read-out: % Viable Cells IC50) of 0.1 µM and an IC50 (U2932; Homo sapiens, U2932 cells (Table 3), read-out: IC50) of 327 µM. The “% Viable Cells AUC” value (U2932; U2932 cells, 5 days) was 327.1, the “% Viable Cells Emax” value (U2932; U2932 cells, 5 days) was 24.81% and the “% Viable Cells Sensitivity” value (U2932; U2932 cells, 5 days) was “Intermediate (intermediate sensitivity with 15% to 55% cell viability)”. For the same compound, the “Apoptosis AUC” value (U2932; U2932 cells, 5 days) was 280.5, the “Apoptosis Sensitivity” value (U2932; U2932 cells, 5 days) was “Intermediate” and the EC50 (U2940; Homo sapiens, U-2940, 120 h) was 0.0679 µM. For the same compound, the Emax (U2940; Homo sapiens, U-2940, 120 h) was 29%, the IC50 (U2940; Homo sapiens, U-2940, 120 h, read-out: % Viable Cells IC50) was 0.035 µM and the “% Viable Cells AUC” value (U2940) was 289.1. The “% Viable Cells Emax” value (U2940) was 29.24%, the “% Viable Cells Sensitivity” value (U2940) was “Intermediate (intermediate sensitivity with 15% to 55% cell viability)” and the “Apoptosis AUC” value (U2940) was 267.4. For the same compound, the “Apoptosis Sensitivity” value (U2940) was “Intermediate”, the EC50 (WSU-DLCL2; [7]) was 0.077 µM and the Emax (WSU-DLCL2; [7]) was 47.8%. The IC50 (WSU-DLCL2; Homo sapiens, WSUDLCL2, 120 h, WSU-DLCL2 cells, 5 days, read-out: % Viable Cells IC50) was 0.02 µM, the IC50 (WSU-DLCL2; Homo sapiens, WSUDLCL2, WSU-DLCL2 cells (Table 3), read-out: IC50) was 174 µM and the “% Viable Cells AUC” value (WSU-DLCL2; WSU-DLCL2 cells, 5 days) was 173.8. The “% Viable Cells Emax” value (WSU-DLCL2; WSU-DLCL2 cells, 5 days) was 1.36%, the “% Viable Cells Sensitivity” value (WSU-DLCL2; WSU-DLCL2 cells, 5 days) was “High (highly sensitive to Compound 1 with less than 6% viable cells remaining (Emax) after treatment)” and the “Apoptosis AUC” value (WSU-DLCL2; WSU-DLCL2 cells, 5 days) was 464.5. The “Apoptosis Sensitivity” value (WSU-DLCL2; WSU-DLCL2 cells, 5 days) was “High”.

— patent US20210116454A1, “METHODS FOR TREATING A HEMATOLOGICAL CANCER AND THE USE OF COMPANION BIOMARKERS FOR 2-(2,6-DIOXOPIPERIDIN-3-YL)-4-((2-FLUORO-4-((3-MORPHOLINOAZETIDIN-1-YL)METHYL)BENZYL)AMINO)ISOINDOLINE-1,3-DIONE” (CELGENE CORPORATION, priority 2019, published 2021)
